# Assay results taken from patent US10646594B2, “Deuterated metabolic water precursor for detecting and treating diseased tissue” (CASE WESTERN RESERVE UNIVERSITY, priority 2009, dated 2020).
# Experiments:
# malignant cells = details: Kushner et al. 1999; cited from earlier work
# [1] = DMR measurement of deuterated glucose metabolism in mice; assay type: in vivo, mice (C57/BL6); details: mice injected iv or ip with 8.9 mg deuterated glucose, whole-body DMR spectrum
# Description: (§1) DMR measurements (AQ 0.2s; TR 0.3s; NS 128; LB 30; 38s/spectrum) were performed at 9.4 T on a wide bore (89 mm) Bruker Avance microimager equipped with a multinuclear probe. A set of experiments was performed on three male mice (C57/BL6) and another set, on Tenebrio molitor larvae. Mouse 1 (25 g), was injected iv with 8.9 mg deuterated glucose (ISOTEC) dissolved in 0.4 ml saline solution; it was sacrificed after 1.5 hr and, after dissection, its whole body (except fur and skin) was placed in a 20 mm NMR tube for running the DMR spectrum (shown in FIG. 4, upper trace). Mouse 2, (32 g) injected ip with the same amount of glucose-d7 as mouse 1 was sacrificed after 3.5 hr, and yielded the spectrum seen in the same FIG. 4, second trace. Tenebrio molitor larvae were starved for several days, then placed in a 20 mm NMR tube together with food consisting of 0.4 g bran wetted with an aqueous solution of deuterated glucose.
# [2] = DMR measurement of deuterated glucose metabolism in Tenebrio molitor larvae; assay type: in vivo; details: starved larvae fed bran wetted with aqueous deuterated glucose, 2H spectrum
# Description: as §1
# In our approach, the excellent tracer quality of deuterium (natural abundance 0.015%) is combined with the fact that only two well separated peaks are to be measured; that of nascent metabolic water, and that of the aliphatic chain of fatty acids. Thus, in spite of their large line widths (100-230 Hz) due to the electric quadrupole moment and unfavorable correlation times, the spectra can be interpreted in a quantitative manner. […]
compound,measurement,setting,value
[2H]O[2H] [D2O],toxicity to malignant cells compared with normal animal cells,malignant cells,more toxic to malignant cells than normal animal cells
"[2H]C1(O)O[C@]([2H])(C([2H])([2H])O)[C@@]([2H])(O)[C@]([2H])(O)[C@@]1([2H])O (stereo partly drawn) [deuterated glucose, D-7 Glucose[1,2,3,4,5,6,6-2H7]]",consumption of deuterated glucose,[1]; sacrificed after 1.5 hr or 3.5 hr,all deuterated glucose was consumed by the mice
same,metabolic fate of deuterated glucose (metabolic water / fat),[1],"most of it provided protons for the formation of metabolic water, part of it was metabolized into fat"
same,incorporation of D-label into fat,[2],did not incorporate a visible amount of D-label into fat
same,metabolism of glucose into deuterated water,[2]; end of the experiment,all glucose was metabolized into deuterated water
